Reference: patent publication US12187663B2, “Thyromimetics with a biphenylmethane scaffold and their use” (INTERNATIONAL SOCIETY FOR DRUG DEVELOPMENT S.R.L., priority 2019, dated 2025)

Experiments:
[1] = system: AMPK; assay: Western blot of phosphorylated AMPK in HepG2 cells; type: cell-based, Human; conditions: twenty-four hours of treatment, dose dependent
Method: Human hepatocellular carcinoma cells (HepG2), obtained from American Type Culture Collection (Manassas, Va., USA), were cultured in low-glucose (LG) Dulbecco's modified Eagle's medium (DMEM) ([…], Invitrogen, Carlsbad, Calif., USA) or high-glucose (HG) DMEM ([…]) supplemented with 10% fetal bovine serum (FBS) and […] penicillin/streptomycin in an atmosphere of 5% CO2 at 37° C. These cells were then treated with tested compounds at various concentrations for 24 h. After treatments, cells were lysed in a buffer containing 20 mM Tris-HCl (pH 7.5), 0.9% NaCl, 0.2% Triton X-100, and 1% of the protease inhibitor cocktail (Sigma-Aldrich, Milan, Italy) and then stored at −80° C. for further western blot analysis. All the analyses were conducted on cells between the third and the sixth passage.
Proteins (20-30 μg) were separated on CriterionTGX™ gel (4-20%) and transferred on Immuno-PVDF membrane (Biorad, Milan, Italy) for 1 h. Blots were incubated with the primary antibody at 4° C. overnight. All the polyclonal antibodies for the protein of interest were purchased from Santa Cruz Biotechnology, Inc., Dallas, TX, USA. Then, blots were washed 3 times for 10 minutes with 1×TBS, 0.1% Tween® 20 and incubated for 1 h with secondary antibody (peroxidase-coupled anti rabbit in 1×TBS, 0.1% Tween®20). […] Band densitometric analysis was performed using Image Lab Software (Biorad, Milan, Italy).
The liver is a major organ responsible for most functions of cellular metabolism and a mediator between dietary and endogenous sources of energy for extrahepatic tissues. In this context, AMPK constitutes an intrahepatic energy sensor regulating physiological energy dynamics by limiting anabolism and stimulating catabolism, thus increasing ATP availability. Once activated, AMPK phosphorylates its downstream substrates to reduce ATP-consuming anabolic pathways, including cholesterol, fatty acid, and triacylglycerol synthesis, and increases ATP-generating catabolic pathways, including fatty acid oxidation and lipolysis. […]

[2] = system: HepG2 cells; assay: Glycerol release (lipolysis); type: cell-based, Human; conditions: 24 hours treatment, 1 and 10 μM
Method: Samples of the media collected from HepG2 cells used to test lipid accumulation by Oil Red O staining (as detailed above), were assayed for glycerol levels using the Glycerol Assay Kit (Cell Based-ab133130-Abcam).

[3] = Serum levels of cholesterol, glucose, transaminases, amylase, lipase, bilirubin and triglycerides; type: in vivo, F-344 rats; conditions: rats, intragastric administration, 3 days

SMILES	expression of p-AMPK [1]	glycerol release / lipolysis [2]	serum TGs level [3]
Cc1cc(OCC(=O)O)cc(C)c1Cc1ccc(N)c(C(C)C)c1 [IS25, 2-(4-(4-amino-3-isopropylbenzyl)-3,5-dimethylphenoxy)acetic acid]	significantly (p<0.05) increased	induce lipolysis	significantly reduced
CC(=O)Nc1ccc(Cc2c(C)cc(OCC(=O)O)cc2C)cc1C(C)C [TG68, 2-(4-(4-acetamido-3-isopropylbenzyl)-3,5-dimethylphenoxy)acetic acid]	significantly (p<0.05) increased	induce lipolysis	significantly reduced
